Measured values: PMC8032764 (Scientific Reports, 2021)
Read-outs that look alike come from different tables or passages of the source.

Tests used:
[1] = system: T1, Histamine H1; test: Cerep binding; design: species or system human; conditions: 10 μM; [3H]pyrilamine; hum. recomb. (HEK-293)
T1 construct: host or cells: HEK-293

[2] = system: T2, Vasoactive intestinal peptide PAC1 (PACAP); test: Cerep binding; design: species or system human; conditions: 10 μM; [125I]PACAP1-27; hum. recomb. (CHO)
T2 construct: host or cells: CHO

[3] = system: Purinergic P2Y; test: Cerep binding; conditions: 10 μM; [35S]dATPαS; rat cerebral cortex
[4] = system: T3, Endothelin ETB; test: Cerep binding; design: species or system human; conditions: 10 μM; [125I]endothelin-1; hum. recomb. (CHO)
T3 construct: purchased Eurofins Cerep

[5] = system: Ca2+ channel, L-type (phenylalkylamine site); test: Cerep binding; conditions: 10 μM; [3H](-)D 888; rat cerebral cortex
[6] = system: T4, Muscarinic M1; test: Cerep binding; design: species or system human; conditions: 10 μM; [3H]pirenzepine; hum. recomb. (CHO)
T4 construct: host or cells: CHO

[7] = system: T5, Serotonin 5-HT5a; test: Cerep binding; design: species or system human; conditions: 10 μM; [3H]LSD; hum. recomb. (CHO)
T5 construct: purchased Eurofins Cerep

[8] = system: T6, Serotonin 5-HT2C; test: Cerep binding; design: species or system human; conditions: 10 μM; [3H]mesulergine; hum. recomb. (CHO)
T6 construct: purchased Eurofins Cerep

[9] = system: T7, Neurotensin NTS1 (NT1); test: Cerep binding; design: species or system human; conditions: 10 μM; [125I]Tyr3-neurotensin; hum. recomb. (CHO)
T7 construct: host or cells: CHO

[10] = system: T8, Adrenergic β2; test: Cerep binding; design: species or system human; conditions: 10 μM; [3H](-)CGP 12177; hum. recomb. (CHO)
T8 construct: host or cells: CHO

[11] = system: T9, Prostanoid EP4; test: Cerep binding; design: species or system human; conditions: 10 μM; [3H]PGE2; hum. recomb. (CHO)
T9 construct: host or cells: CHO

[12] = system: T10, Opioid κ; test: Cerep binding; design: species or system human; conditions: 10 μM; [3H]U 69593; hum. recomb. (CHO)
T10 construct: host or cells: CHO

[13] = system: T11, Adenosine A2A; test: Cerep binding; design: species or system human; conditions: 10 μM; [3H]CGS 21680; hum. recomb. (HEK-293)
T11 construct: host or cells: HEK-293

[14] = system: T12, Benzodiazepine (peripheral); test: Cerep binding; conditions: 10 μM; [3H]PK 11195; rat heart
T12 construct: tissue Eurofins Cerep SA; host or cells: rat heart

[15] = system: T13, Neuropeptide Y1; test: Cerep binding; design: species or system human; conditions: 10 μM; [125I]peptide YY; hum., SK-N-MC cells
T13 construct: purchased Eurofins Cerep

[16] = target: human GABAA α5β3γ2 (Homo sapiens, UniProt P18507+P31644); test: [3H]-Ro-15 4513 displacement assay; format: binding; design: expressed in transfected cells; host or cells: HEK293-EBNA, transient
Procedure: IC50 values were derived from the inhibition curve and Ki values were calculated as described below.

[17] = Plasma levels, prepulse inhibition; format: in vivo, rat; conditions: approximately 60 min, mean ± SD
Procedure: intensities (72, 76, 80, 84 dB) at total plasma concentrations of 56 ± 20, 169 ± 20, and […]
Compound administered at 1, 3 and 10 mg/kg p.o. to male Sprague-Dawley rats 30 min prior to testing. Bars indicate mean percent prepulse inhibition (% PPI) ± SEM; 10 animals per dose group. Background noise: 68 dB. Startle pulse: 12 0 dB. For full methods refer to:
Nordquist et al. (2008). Effects of aripiprazole/OPC-14597 on motor activity, pharmacological models of psychosis, and brain activity in rats. Neuropharmacology , 54,405-416.
Animals were euthanized at the end of testing and plasma samples were collected approximately 60 min post administration; n = 4 rats per group.
(1 picture or pasted object on this page, not shown here)

[18] = system: T14, Cholecystokinin CCK1; test: Cerep binding; design: species or system human; conditions: 10 μM; [125I]CCK-8s; hum. recomb. (CHO)
T14 construct: purchased Eurofins Cerep

[19] = target: T15, human GABAA α1β3γ2 receptors (Homo sapiens, UniProt P14867+P18507); test: [3H]-flumazenil competition binding, HEK293 membranes; conditions: 1 nM [3H]-flumazenil
T15 construct: expressed in transfected cells; host or cells: HEK293-EBNA, transient

[20] = Plasma levels, object retrieval task; format: in vivo, Macaca fascicularis; conditions: cynomolgus monkey, oral; for concentration at 180 min: read-out: total plasma concentration
Procedure: Twelve cynomolgus macaques were presented with a clear acrylic box with one open side baited with a food treat, as described previously[14],[38]. The test is easy when the open side of the box is directed towards the subject and difficult when the open sides face other directions. […] Compound doses were administered in a pseudorandom order. Administration of dose and behavioral measurements were completed blind. Data were analysed using a one-way repeated measures ANOVA followed, in significant cases, by a post hoc Dunnett’s test. Plasma samples were collected from the same three subjects at each dose group at 3 h post administration. […] The calibration range was from 1.0 to 5000 ng/mL. After protein precipitation with ethanol, the sample solution was injected onto a Gemini C18 trapping column (2 × 10 mm; Phenomenex, Torrance, CA, USA) and polar endogenous compounds and salts were rinsed off. […] A drug analogue was used as an internal standard.

[21] = system: cynomolgus macaques; test: Object retrieval task; format: in vivo, Macaca fascicularis; conditions: 2 h prior to testing
Procedure: Twelve cynomolgus macaques were presented with a clear acrylic box with one open side baited with a food treat, as described previously[14],[38]. The test is easy when the open side of the box is directed towards the subject and difficult when the open sides face other directions. […] Compound doses were administered in a pseudorandom order. Administration of dose and behavioral measurements were completed blind. Data were analysed using a one-way repeated measures ANOVA followed, in significant cases, by a post hoc Dunnett’s test. Plasma samples were collected from the same three subjects at each dose group at 3 h post administration.

[22] = system: T16, Chemokine CCR1; test: Cerep binding; design: species or system human; conditions: 10 μM; [125I]MIP-1a; hum. recomb. (HEK-293)
T16 construct: purchased Eurofins Cerep

Structure (SMILES): Cc1onc(-c2ccc(F)cc2)c1COc1ccc(C(=O)N2CCS(=O)(=O)CC2)cn1 [basmisanil]
- % Inhibition [1]: 10%
- % Inhibition [2]: -16%
- % Inhibition [3]: 9%
- % Inhibition [4]: -2%
- % Inhibition [5]: -3%
- % Inhibition [6]: 6%
- % Inhibition [7]: 5%
- % Inhibition [8]: 10%
- % Inhibition [9]: -6%
- % Inhibition [10]: 10%
- % Inhibition [11]: 3%
- % Inhibition [12]: 13%
- % Inhibition [13]: 9%
- % Inhibition [14]: -10%
- % Inhibition [15]: 0%
- Ki [16]: 7.6 ± 0.3 nM
- total plasma concentration ([17]; 1 mg/kg p.o.): 56 ± 20 ng/mL
- total plasma concentration ([17]; 3 mg/kg p.o.): 169 ± 20 ng/mL
- total plasma concentration ([17]; 10 mg/kg p.o.): 729 ± 255 ng/mL
- % Inhibition [18]: 10%
- Ki [19]: 1030 ± 54 nM
- concentration at 180 min ([20]; 1 mg/kg p.o.): 257 ng/mL
- concentration at 180 min ([20]; 3 mg/kg p.o.): 1020 ng/mL
- concentration at 3 h ([20]; 3 mg/kg p.o., read-out: free plasma concentration): 156 nM
- concentration at 180 min ([20]; 10 mg/kg p.o.): 2260 ng/mL
- concentration at 180 min ([20]; 30 mg/kg p.o.): 2850 ng/mL
- percentage of correct first reaches during difficult trials ([21]; 1 and 30 mg/kg p.o.): no marked improvement on performance
- percentage of correct first reaches during difficult trials ([21]; 3 and 10 mg/kg p.o.): significantly improved
- % Inhibition [22]: -2%
